In ChEMBL document CHEMBL1149145, “Synthesis and selective inhibitory activity of 1-acetyl-3,5-diphenyl-4,5-dihydro-(1H)-pyrazole derivatives against monoamine oxidase” (J Med Chem, 2004):

How the values were obtained:
[1] = target: Amine oxidase [flavin-containing] A (Bos taurus) (UniProt P21398); assay: Inhibition of bovine monoamine oxidase A
[2] = target: Amine oxidase [flavin-containing] B (Bos taurus) (UniProt P56560); assay: Inhibition of bovine monoamine oxidase B
[3] = target: Monoamine oxidase (Bos taurus); assay: Inhibition of bovine monoamine oxidase
[4] = target: Amine oxidase [flavin-containing] A (Bos taurus) (UniProt P21398); assay: Binding affinity was evaluated against bovine monoamino oxidase A
[5] = target: Amine oxidase [flavin-containing] B (Bos taurus) (UniProt P56560); assay: Binding affinity was evaluated against bovine monoamino oxidase B

Chain of Amine oxidase [flavin-containing] B (Bos taurus) (P56560 whole entry, looked up): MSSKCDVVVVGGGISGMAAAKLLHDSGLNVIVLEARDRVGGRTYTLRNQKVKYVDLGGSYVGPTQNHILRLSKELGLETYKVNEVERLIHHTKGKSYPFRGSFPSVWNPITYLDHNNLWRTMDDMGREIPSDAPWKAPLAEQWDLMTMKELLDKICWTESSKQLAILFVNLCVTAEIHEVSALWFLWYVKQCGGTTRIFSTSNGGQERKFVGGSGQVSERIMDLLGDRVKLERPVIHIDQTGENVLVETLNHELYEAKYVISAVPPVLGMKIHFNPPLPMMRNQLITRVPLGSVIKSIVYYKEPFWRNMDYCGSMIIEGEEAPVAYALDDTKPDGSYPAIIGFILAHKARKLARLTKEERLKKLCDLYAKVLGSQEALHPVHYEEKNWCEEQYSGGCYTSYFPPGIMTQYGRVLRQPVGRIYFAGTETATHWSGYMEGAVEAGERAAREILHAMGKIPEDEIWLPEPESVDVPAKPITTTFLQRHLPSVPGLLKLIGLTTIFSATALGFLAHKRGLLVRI

| IC50 [1] | IC50 [2] | IC50 [3] | Ki [4] | Ki [5] | Structure (SMILES) |
| --- | --- | --- | --- | --- | --- |
| 0.009 µM | 83 µM | 10 µM | – | – | COc1ccc(C2CC(c3ccc(O)cc3O)=NN2C(C)=O)cc1 (stereo not drawn) |
| 0.1 µM | 30 µM | 0.2 µM | – | – | CC(=O)N1N=C(c2ccc(O)cc2)CC1c1ccc(C)cc1 (stereo not drawn) |
| 0.01 µM | 25 µM | 12 µM | – | – | CC(=O)N1N=C(c2ccc(O)cc2)CC1c1cccc(Cl)c1 (stereo not drawn) |
| 0.008 µM | 19 µM | 9.5 µM | – | – | CC(=O)N1N=C(c2ccc(O)cc2)CC1c1cccc(C)c1 (stereo not drawn) |
| 0.01 µM | 120 µM | 20 µM | – | – | CC(=O)N1N=C(c2ccc(O)cc2O)CC1c1ccc(Cl)cc1 (stereo not drawn) |
| 0.009 µM | 42 µM | 9.5 µM | – | – | CC(=O)N1N=C(c2ccc(O)cc2O)CC1c1ccc(C)cc1 (stereo not drawn) |
| 0.0086 µM | 89 µM | 50 µM | – | – | CC(=O)N1N=C(c2ccc(O)cc2)CC1c1ccccc1Cl (stereo not drawn) |
| 0.01 µM | 20 µM | 10 µM | – | – | COc1ccc(C2CC(c3ccc(O)cc3)=NN2C(C)=O)c(OC)c1 (stereo not drawn) |
| 0.009 µM | 7.2 µM | 3.6 µM | – | – | COc1ccc(C2CC(c3ccc(O)cc3)=NN2C(C)=O)cc1 (stereo not drawn) |
| 0.1 µM | 40 µM | 40 µM | – | – | CC(=O)N1N=C(c2ccc(O)cc2)CC1c1ccc(Cl)cc1 (stereo not drawn) |
| – | – | – | 0.007 µM | 270 µM | COc1ccccc1C1CC(c2ccc(O)cc2O)=NN1C(C)=O (single isomer, unassigned; (+)) |
| – | – | – | 0.002 µM | 330 µM | COc1ccccc1C1CC(c2ccc(O)cc2)=NN1C(C)=O (single isomer, unassigned; (-)) |
| – | – | – | 0.004 µM | 320 µM | COc1ccccc1C1CC(c2ccc(O)cc2O)=NN1C(C)=O (single isomer, unassigned; (-)) |
| 0.0088 µM | 100 µM | 30 µM | 0.009 µM | 760 µM | COc1ccccc1C1CC(c2ccc(O)cc2)=NN1C(C)=O (stereo in doubt; 6) |
| 0.008 µM | 130 µM | 40 µM | 0.008 µM | 600 µM | COc1ccccc1C1CC(c2ccc(O)cc2O)=NN1C(C)=O (stereo in doubt; 11) |
| – | – | – | 0.006 µM | 1000 µM | COc1ccccc1C1CC(c2ccc(O)cc2)=NN1C(C)=O (stereo in doubt; (+)-6) |
